Test results from ChEMBL document CHEMBL2396546, “Australian marine sponge alkaloids as a new class of glycine-gated chloride channel receptor modulator” (Bioorg Med Chem, 2013).

Assays:
Format in all cases: cell-based
[1] = molecular target: T1, Glycine receptor subunit alpha-3 (Homo sapiens, UniProt O75311); test: Modulation of recombinant GlyR-alpha3 (unknown origin) expressed in HEK293 cells assessed as inhibition of glycine-induced current by automated planar patch-clamp automated electrophysiology assay
T1 sequence (O75311 whole entry): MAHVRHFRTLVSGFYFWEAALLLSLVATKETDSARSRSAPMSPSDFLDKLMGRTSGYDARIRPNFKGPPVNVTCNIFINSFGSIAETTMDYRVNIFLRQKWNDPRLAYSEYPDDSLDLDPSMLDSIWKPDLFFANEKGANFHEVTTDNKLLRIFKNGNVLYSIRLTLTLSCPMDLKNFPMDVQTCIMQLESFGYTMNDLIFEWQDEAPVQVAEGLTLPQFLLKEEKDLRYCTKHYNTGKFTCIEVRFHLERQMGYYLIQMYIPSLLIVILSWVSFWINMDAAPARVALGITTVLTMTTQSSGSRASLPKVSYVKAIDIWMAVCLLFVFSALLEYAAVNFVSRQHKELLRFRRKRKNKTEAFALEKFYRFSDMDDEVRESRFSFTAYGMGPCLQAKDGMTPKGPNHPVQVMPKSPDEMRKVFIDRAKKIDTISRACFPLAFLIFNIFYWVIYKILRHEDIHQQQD

[2] = molecular target: T2, Glycine receptor subunit alpha-1 (Homo sapiens, UniProt P23415); test: Modulation of recombinant GlyR-alpha1 (unknown origin) expressed in HEK293 cells assessed as inhibition of glycine-induced current by automated planar patch-clamp automated electrophysiology assay
T2 sequence (P23415 whole entry): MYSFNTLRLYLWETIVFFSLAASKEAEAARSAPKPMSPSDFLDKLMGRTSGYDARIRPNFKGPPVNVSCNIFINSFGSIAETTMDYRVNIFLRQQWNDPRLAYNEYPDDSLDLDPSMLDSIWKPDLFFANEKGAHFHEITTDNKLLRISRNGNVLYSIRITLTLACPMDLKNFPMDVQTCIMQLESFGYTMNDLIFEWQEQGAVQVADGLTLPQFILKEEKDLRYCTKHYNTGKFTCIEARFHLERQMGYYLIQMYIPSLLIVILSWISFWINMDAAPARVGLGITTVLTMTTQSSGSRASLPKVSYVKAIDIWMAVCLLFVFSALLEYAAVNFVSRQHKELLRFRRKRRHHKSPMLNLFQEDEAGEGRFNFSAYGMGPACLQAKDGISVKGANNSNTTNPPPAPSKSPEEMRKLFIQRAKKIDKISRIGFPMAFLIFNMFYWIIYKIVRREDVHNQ

[3] = molecular target: T3, Glycine receptor subunit alpha-1 (Homo sapiens) (UniProt P23415); test: Modulation of recombinant GlyR-alpha1 (unknown origin) expressed in HEK293 cells assessed as inhibition of glycine-induced current at 1 uM by automated planar patch-clamp automated electrophysiology assay
T3 sequence (whole entry): T2 sequence (P23415 whole entry)

With `CN1C(=O)/C(=C\c2c[nH]c3ccccc23)N(C)C1=O` the IC50 [1] was 67 µM and the IC50 [2] was greater than 200 µM.
Work on `CN1C(=O)NC(=O)/C1=C\c1c[nH]c2ccccc12` yielded an IC50 [1] of 33.9 µM and an IC50 [2] of 8.8 µM.
In the case of `CN1C(=N)N(C)[C@@]2(C1=O)c1[nH]c3ccccc3c1C[C@@]1(C(=O)N(C)C(=N)N1C)[C@@H]2c1c[nH]c2ccccc12`, the IC50 [1] is reported as greater than 300 µM, the IC50 [2] is reported as 25.9 µM and the inhibition [3] is reported as 126%.
